# Like-named read-outs stand apart in the source and are kept apart here.
# Experiments:
# [1] = test system: Lewis lung carcinoma (LL2); parameters: method as in Pan et al., 2020; details: ref Pan et al., 2020, cited from earlier work
# IDO1 [2] = details: cited from earlier work
# [3] = test system: hepatocellular carcinoma (Hepa1-6); parameters: method as in Pan et al., 2020; details: hepatocellular carcinoma (Hepa1-6) model; ref Pan et al., 2020; cited from earlier work
# IDO1 [4] = details: read-out: IC50 in enzymatic assays, cited from earlier work
# TDO = test system: TDO; parameters: method as in Rohrig et al., 2012; Rohrig et al., 2019; details: ref Rohrig et al., 2012, 2019; cited from earlier work
# [5] = 2019, cited from earlier work
# human IDO1 = test system: human IDO1; parameters: method as in Rohrig et al., 2012; Rohrig et al., 2019; details: ref Rohrig et al., 2012, 2019, read-out: IC50 in cellular assays, human IDO1; cited from earlier work
# mouse IDO1 = test system: mouse IDO1; parameters: method as in Rohrig et al., 2012; Rohrig et al., 2019; details: ref Rohrig et al., 2012, 2019, read-out: IC50 in cellular assays, mouse IDO1; cited from earlier work
# IDO1 [6] = test system: IDO1; parameters: method as in Alexandre et al., 2018; details: ref Alexandre et al., 2018; read-out: IC50 in cellular assays; cited from earlier work
# kynurenine production = test system: kynurenine production; parameters: method as in Wang et al., 2019; details: treated cells, low concentrations; ref Wang et al., 2019; cited from earlier work
# IDO1 in MDA-MB-231 cells = test system: IDO1 in MDA-MB-231 cells; parameters: method as in Panda et al., 2019; details: ref Panda et al., 2019; cited from earlier work
# 5-HT reuptake = test system: 5-HT reuptake; parameters: method as in earlier work; details: ref Crosignani et al., 2017; González-Gutiérrez et al., 2025; Mendez-Rojas et al., 2018; cited from earlier work
# dopamine D2 receptor = test system: dopamine D2 receptor; parameters: method as in earlier work; details: ref Crosignani et al., 2017; González-Gutiérrez et al., 2025; Mendez-Rojas et al., 2018; cited from earlier work
# IDO1 [7] = biological target: T1, IDO1 (Homo sapiens, UniProt P14902); assay: HeLa cell-based IDO1 inhibition assay; details: HeLa cells, 100 ng/mL human IFN-γ, 18 h, kynurenine absorbance at 480 nm
# T1 construct: endogenous in cells; host or cells: HeLa cells stimulated with 100 ng/mL human IFN-γ
# T1 sequence (P14902 whole entry): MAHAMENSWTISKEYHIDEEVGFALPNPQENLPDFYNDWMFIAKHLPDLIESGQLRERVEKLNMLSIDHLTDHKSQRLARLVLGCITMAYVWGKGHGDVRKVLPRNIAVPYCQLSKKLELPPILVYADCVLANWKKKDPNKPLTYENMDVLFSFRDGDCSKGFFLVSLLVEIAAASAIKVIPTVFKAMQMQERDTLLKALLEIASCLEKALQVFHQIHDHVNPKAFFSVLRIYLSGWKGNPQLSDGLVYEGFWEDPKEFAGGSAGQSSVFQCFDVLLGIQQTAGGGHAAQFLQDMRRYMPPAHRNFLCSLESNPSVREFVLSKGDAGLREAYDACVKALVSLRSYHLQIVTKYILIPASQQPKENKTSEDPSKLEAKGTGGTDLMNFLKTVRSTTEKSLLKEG
# Description: To evaluate the IDO1 inhibitory activity of the newly synthesized derivatives, HeLa cells with high IDO1 expression were used as the experimental model. […] To perform the HeLa cell-based IDO1 inhibition assay, HeLa cells were seeded at a density of 50,000 cells per well in a 96-well microplate containing 100 μL of DMEM supplemented with 10% fetal bovine serum and 1% penicillin-streptomycin. The cells were incubated overnight at 37 °C in a humidified atmosphere with 5% CO2. The following day, 100 μL of growth medium containing diluted inhibitors and 100 ng/mL human IFN-γ was added to each well. The cells were then incubated at 37 °C in a CO2 incubator for 18 h. […] The plate was incubated at 50 °C for 30 min and then centrifuged at 2,500 rpm for 10 min to remove any sediment. Next, 100 μL of the supernatant was transferred to a separate 96-well plate and mixed with 100 μL of 2% (w/v) 4-(dimethylamino)benzaldehyde in acetic acid. After a 10-min incubation at room temperature, the absorbance of the resulting yellow color, indicative of kynurenine, was measured at 480 nm using a microplate reader.
smiles,measurement,setting,value
O=C1c2cc(F)ccc2C(=O)c2c1nnn2-c1ccc(F)c(Cl)c1 [Compound 2],toxicity in vivo models,[1]; LL2 and Hepa1-6 in vivo models,minimal toxicity
same,anti-tumor activity in vivo,[1]; Lewis lung carcinoma (LL2) model,significant anti-tumor activity
same,IC50,"IDO1 [2]; ref Pan et al., 2020, read-out: IDO1 inhibition IC50",0.005 µM
same,anti-tumor activity in vivo,[3],significant anti-tumor activity
Oc1ccc(Cl)cc1-c1c[nH]nn1 [Compound 3],IC50,"IDO1 [4]; ref Rohrig et al., 2012, Rohrig et al., 2019",0.33 µM
same,activity against TDO,TDO,no activity
same,cytotoxicity,"[5]; cellular assays, ref Rohrig et al., 2012, Rohrig et al.",minimal cytotoxicity
same,IC50,human IDO1,0.08 µM
same,IC50,mouse IDO1,0.002 µM
Clc1ccc(Nc2c[nH]nn2)cc1 [Compound 4],IC50,"IDO1 [4]; ref Alexandre et al., 2018",11.3 µM
same,IC50,IDO1 [6],0.023 µM
COc1cccc2c1C(=O)C1=C(C[C@H](Cn3cc(-c4ccccc4)nn3)O[C@@H]1C)C2=O [Compound 5],reduction of kynurenine production,kynurenine production,over 60%
same,cytotoxicity,[5]; ref Wang et al.,minimal cytotoxicity
same,IC50,"IDO1 [2]; ref Wang et al., 2019, read-out: potency against IDO1, IC50",6 µM
NS(=O)(=O)NCCNC(=O)c1n[nH]nc1-c1ccc(F)c(F)c1 [Compound 6],IDO1 inhibition in MDA-MB-231 cells,IDO1 in MDA-MB-231 cells,strong IDO1 inhibition
same,cytotoxicity,[5]; ref Panda et al.,negligible cytotoxicity
CC(CCN1CCN(c2cccc3c2OCC(=O)N3)CC1)c1c[nH]c2ccc(F)cc12 (stereo not drawn) [Compound 11],activity in inhibiting 5-HT reuptake,5-HT reuptake,high activity
same,dopamine D2 receptor inhibition,dopamine D2 receptor,potent
O=C1COc2ccc(NC(=O)c3cccc(-c4cn(Cc5ccc(Br)cc5)nn4)c3)cc2N1 [Compound 14a],IC50,IDO1 [7],11.2 µM
Cc1cc(C)cc(Cn2cc(-c3cccc(C(=O)Nc4ccc5c(c4)NC(=O)CO5)c3)nn2)c1 [Compound 14b],IC50,IDO1 [7],> 30 µM
O=C1COc2ccc(NC(=O)c3cccc(-c4cn(Cc5cc(F)c(F)c(F)c5)nn4)c3)cc2N1 [Compound 14c],IC50,IDO1 [7],> 30 µM
N#Cc1ccc(F)cc1Cn1cc(-c2cccc(C(=O)Nc3ccc4c(c3)NC(=O)CO4)c2)nn1 [Compound 14d],IC50,IDO1 [7],> 30 µM
O=C1COc2ccc(NC(=O)c3cccc(-c4cn(Cc5ccc(F)c(Cl)c5)nn4)c3)cc2N1 [Compound 14f],IC50,IDO1 [7],8.02 µM
O=C1COc2ccc(NC(=O)c3cccc(-c4cn(Cc5cccc(Cl)c5)nn4)c3)cc2N1 [Compound 14g],IC50,IDO1 [7],10.1 µM
O=C1COc2ccc(NC(=O)c3cccc(-c4cn(Cc5cc(Cl)ccc5F)nn4)c3)cc2N1 [Compound 14h],IC50,IDO1 [7],9.98 µM
O=C1COc2ccc(NC(=O)c3cccc(-c4cn(Cc5ccc(F)cc5)nn4)c3)cc2N1 [Compound 14i],IC50,IDO1 [7],> 30 µM
O=C1COc2ccc(NC(=O)c3cccc(-c4cn(Cc5ccccc5F)nn4)c3)cc2N1 [Compound 14j],IC50,IDO1 [7],> 30 µM

# Reference: article PMC12491243, “Rational design of indoleamine 2,3-dioxygenase 1 (IDO1) inhibitors featuring 1,2,3-triazole derivatives with enhanced anti-inflammatory and analgesic efficacy” (Frontiers in Pharmacology, 2025)
